Results reported in patent US20260015360A1 (MOMA Therapeutics, Inc., priority 2023, published 2026).

What was measured:
[1] = biological target: T1, biotinylated Avi-POLΘ[2-894] (Homo sapiens, UniProt O75417); assay: ATPase assay (ADP-Glo): POLΘ-mediated ATP hydrolysis; details: read-out: Biochemical ATPase ADPGlo IC50
T1 construct: 1 nM biotinylated Avi-POLΘ[2-894]

[2] = test system: DLD1 WT cells; assay: DLD1 viability assay (CellTiter-Glo, 7 days), DLD1 WT; format: cell-based; details: Homo sapiens, DLD-1, 168 h
Protocol: (§1) The seeding densities are pre-determined from the growth curve kinetics performed to ensure log linear phase of cell growth for these 2 cell lines. These assay plates are then placed in the incubator at 37° C., 5% CO2, relative humidity>90% for a few hours before addition of test compounds. Compounds are dispensed using the Tecan HPD300 or Echo based on the plate map in the appropriate wells of the 384-well plates. […] After addition of the test compounds, the plates are incubated at 37° C., 5% CO2, relative humidity>90% for 7 days. CellTiter-Glo (Promega Cat. No. G7573), ATP detection reagent is prepared according to manufacturer's specifications. Cell assay plates are removed from incubator and bring to room temperature (RT) by letting them sit at bench top for at least 15 min. Using the MultiDrop liquid handler or a multichannel pipette, 35 μL/well of CTG is added and the plates are then placed shakes for 5 seconds, RT. These plates are then incubated for 30 minutes in the dark at RT before measuring luminescence using Spectramax/Enspire/Ensight/Envision/PheraSTAR.

[3] = test system: DLD1 BRCA2 (−/−) cells; assay: DLD1 viability assay (CellTiter-Glo, 7 days), DLD1 BRCA2 (−/−); format: cell-based; details: Homo sapiens, DLD-1, 168 h, read-out: Viability IC50 (μM) DLD1 BRCA2 null
Protocol: as §1

T1 sequence (O75417 2-894 limits assumed): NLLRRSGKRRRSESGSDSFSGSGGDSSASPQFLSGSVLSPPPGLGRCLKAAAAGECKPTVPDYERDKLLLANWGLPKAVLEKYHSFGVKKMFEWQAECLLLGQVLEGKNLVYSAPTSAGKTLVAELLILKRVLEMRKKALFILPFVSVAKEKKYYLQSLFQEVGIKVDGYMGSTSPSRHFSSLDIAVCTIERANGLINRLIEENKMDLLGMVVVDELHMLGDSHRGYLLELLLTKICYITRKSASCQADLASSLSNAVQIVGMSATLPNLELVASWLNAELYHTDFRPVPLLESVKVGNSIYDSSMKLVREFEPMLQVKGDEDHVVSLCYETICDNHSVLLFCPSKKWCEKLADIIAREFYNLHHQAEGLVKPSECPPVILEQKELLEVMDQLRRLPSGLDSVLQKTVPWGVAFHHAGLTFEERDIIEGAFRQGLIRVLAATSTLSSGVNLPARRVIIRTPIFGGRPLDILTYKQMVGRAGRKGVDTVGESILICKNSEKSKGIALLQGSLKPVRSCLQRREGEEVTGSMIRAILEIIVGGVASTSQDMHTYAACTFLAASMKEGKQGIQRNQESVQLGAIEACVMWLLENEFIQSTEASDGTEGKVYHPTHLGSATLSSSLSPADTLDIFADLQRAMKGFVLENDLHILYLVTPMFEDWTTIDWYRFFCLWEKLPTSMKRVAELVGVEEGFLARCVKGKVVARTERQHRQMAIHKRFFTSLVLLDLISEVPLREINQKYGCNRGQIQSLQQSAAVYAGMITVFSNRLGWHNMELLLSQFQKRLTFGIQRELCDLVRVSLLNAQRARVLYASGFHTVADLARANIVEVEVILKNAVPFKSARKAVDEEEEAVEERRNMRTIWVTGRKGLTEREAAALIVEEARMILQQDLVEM

SMILES	IC50 [1]	IC50 [2]	IC50 [3]
Cc1cc(N2CCC3(CNC(=O)C3)C2)c(C(=O)Nc2nc3ncc(-c4ccncc4)cc3s2)cn1 (racemic) [Example 201]	> 900 nM	–	–
COc1cnc(Cl)cc1-c1cc(C)ncc1C(=O)Nc1nn2cc(C3CCC(CO)C3)nc2s1 (racemic) [Example 270]	15 to 50 nM	–	–
COc1ccccc1-c1cc(C)ncc1C(=O)Nc1nc2ncc(C3CCCCO3)cc2s1 (single isomer, unassigned) [Example 106, (S or R)-4-(2-methoxyphenyl)-6-methyl-N-(6-(tetrahydro-2H-pyran-2-yl)thiazolo[4,5-b]pyridin-2-yl)nicotinamide]	15 to 50 nM	–	–
Cc1cc(N2CCC[C@H](C#N)C2)c(C(=O)Nc2nc3ncc(-c4ccncc4)cc3s2)cn1 (single isomer, unassigned) [Example 143]	150 to 900 nM	–	–
COc1cnc(Cl)cc1-c1cc(C)ncc1C(=O)Nc1nc2ncc(N3CC[C@@](C)(OC)[C@@H](F)C3)nc2s1 (single isomer, unassigned) [Example 363, 2′-chloro-N-(6-((3S or R,4R or S)-3-fluoro-4-methoxy-4-methylpiperidin-1-yl)thiazolo[4,5-b]pyrazin-2-yl)-5′-methoxy-6-methyl-[4,4′-bipyridine]-3-carboxamide]	15 to 50 nM	–	–
COc1cnc(Cl)cc1-c1cc(C)ncc1C(=O)Nc1nc2ncc(N3CCO[C@H](C)[C@H]3C)nc2s1 (single isomer, unassigned) [Example 402, 2′-chloro-N-(6-((2R or S,3R or S)-2,3-dimethylmorpholino)thiazolo [4,5-b]pyrazin-2-yl)-5′-methoxy-6-methyl-[4,4′-bipyridine]-3-carboxamide]	1 to 15 nM	–	–
COc1cnc(Cl)cc1-c1cc(C)ncc1C(=O)Nc1nc2ncc(N3CCO[C@@H](C)[C@H]3C)nc2s1 (single isomer, unassigned) [Example 408, 2′-chloro-N-(6-((2S or R,3R or S)-2,3-dimethylmorpholino)thiazolo [4,5-b]pyrazin-2-yl)-5′-methoxy-6-methyl-[4,4′-bipyridine]-3-carboxamide]	1 to 15 nM	–	–
COc1cnc(Cl)cc1-c1cc(C)ncc1C(=O)Nc1nc2ncc(N3CCO[C@@H](C)[C@@H]3C)nc2s1 (single isomer, unassigned) [Example 415, 2′-chloro-N-(6-((2S or R,3S or R)-2,3-dimethylmorpholino)thiazolo [4,5-b]pyrazin-2-yl)-5′-methoxy-6-methyl-[4,4′-bipyridine]-3-carboxamide]	15 to 50 nM	–	–
COc1cnc(Cl)cc1-c1cc(C)ncc1C(=O)Nc1nc2ncc(N3CCC(C)(O)C(F)C3)nc2s1 (stereo not shown) [Example 465, 2′-chloro-N-(6-(3-fluoro-4-hydroxy-4-methylpiperidin-1-yl)thiazolo[4,5-b]pyrazin-2-yl)-5′-methoxy-6-methyl-[4,4′-bipyridine]-3-carboxamide]	–	> 10 µM	0.001 to 0.1 µM
COc1cnc(Cl)cc1-c1cc(C)ncc1C(=O)Nc1nc2ncc(N3CCC(C4CC4)CC3)nc2s1 [Example 466, 2′-chloro-N-(6-(4-cyclopropylpiperidin-1-yl)thiazolo[4,5-b]pyrazin-2-yl)-5′-methoxy-6-methyl-[4,4′-bipyridine]-3-carboxamide]	–	7.5 to 10 µM	0.001 to 0.1 µM
COc1cnc(Cl)cc1-c1cc(C)ncc1C(=O)Nc1nc2ncc(N3CCC(CC#N)CC3)nc2s1 [Example 467, 2′-chloro-N-(6-(4-(cyanomethyl)piperidin-1-yl)thiazolo[4,5-b]pyrazin-2-yl)-5′-methoxy-6-methyl-[4,4′-bipyridine]-3-carboxamide]	–	> 10 µM	0.001 to 0.1 µM
COc1cnc(Cl)cc1-c1cc(C)ncc1C(=O)Nc1nc2ncc(N3CCC(C(C)(C)C#N)CC3)nc2s1 [Example 468, 2′-chloro-N-(6-(4-(2-cyanopropan-2-yl)piperidin-1-yl)thiazolo[4,5-b]pyrazin-2-yl)-5′-methoxy-6-methyl-[4,4′-bipyridine]-3-carboxamide]	–	5 to 7.5 µM	0.001 to 0.1 µM
COc1cnc(Cl)cc1-c1cc(C)ncc1C(=O)Nc1nc2ncc(N3CCN(CC(F)(F)F)CC3)nc2s1 [Example 471, 2′-chloro-5′-methoxy-6-methyl-N-(6-(4-(2,2,2-trifluoroethyl)piperazin-1-yl)thiazolo[4,5-b]pyrazin-2-yl)-[4,4′-bipyridine]-3-carboxamide]	–	> 10 µM	0.001 to 0.1 µM
COc1cnc(Cl)cc1-c1cc(C)ncc1C(=O)Nc1nc2ncc(N3CCC(C(F)(F)F)CC3)nc2s1 [Example 472, 2′-chloro-5′-methoxy-6-methyl-N-(6-(4-(trifluoromethyl)piperidin-1-yl)thiazolo[4,5-b]pyrazin-2-yl)-[4,4′-bipyridine]-3-carboxamide]	–	5 to 7.5 µM	0.001 to 0.1 µM
COc1cnc(Cl)cc1-c1cc(C)ncc1C(=O)Nc1nc2ncc(N3CCC(C)CC3)nc2s1 [Example 474, 2′-chloro-5′-methoxy-6-methyl-N-(6-(4-methylpiperidin-1-yl)thiazolo[4,5-b]pyrazin-2-yl)-[4,4′-bipyridine]-3-carboxamide]	–	7.5 to 10 µM	0.001 to 0.1 µM
COc1cnc(Cl)cc1-c1cc(C)ncc1C(=O)Nc1nc2ncc(N3CCC(C#N)CC3)nc2s1 [Example 475, 2′-chloro-N-(6-(4-cyanopiperidin-1-yl)thiazolo[4,5-b]pyrazin-2-yl)-5′-methoxy-6-methyl-[4,4′-bipyridine]-3-carboxamide]	–	> 10 µM	0.001 to 0.1 µM
COc1cnc(Cl)cc1-c1cc(C)ncc1C(=O)Nc1nc2ncc(N3CCC(C(C)(C)O)CC3)nc2s1 [Example 480, 2′-chloro-N-(6-(4-(2-hydroxypropan-2-yl)piperidin-1-yl)thiazolo[4,5-b]pyrazin-2-yl)-5′-methoxy-6-methyl-[4,4′-bipyridine]-3-carboxamide]	–	> 10 µM	0.001 to 0.1 µM
COc1cnc(Cl)cc1-c1cc(C)ncc1C(=O)Nc1nc2ncc(N3CCC[C@H](C)C3)nc2s1 [Example 481, (S)-2′-chloro-5′-methoxy-6-methyl-N-(6-(3-methylpiperidin-1-yl)thiazolo[4,5-b]pyrazin-2-yl)-[4,4′-bipyridine]-3-carboxamide]	–	7.5 to 10 µM	0.25 to 0.5 µM
COc1cnc(Cl)cc1-c1cc(C)ncc1C(=O)Nc1nc2ncc(N3CCC4(CCO4)CC3)nc2s1 [Example 482, N-(6-(1-oxa-7-azaspiro[3.5]nonan-7-yl)thiazolo[4,5-b]pyrazin-2-yl)-2′-chloro-5′-methoxy-6-methyl-[4,4′-bipyridine]-3-carboxamide]	–	> 10 µM	0.001 to 0.1 µM
COc1cnc(Cl)cc1-c1cc(C)ncc1C(=O)Nc1nc2ncc(N3CCOCC3)nc2s1 [Example 483, 2′-chloro-5′-methoxy-6-methyl-N-(6-morpholinothiazolo[4,5-b]pyrazin-2-yl)-[4,4′-bipyridine]-3-carboxamide]	–	> 10 µM	0.1 to 0.25 µM
COc1cnc(Cl)cc1-c1cc(C)ncc1C(=O)Nc1nc2ncc(N3CCC[C@@H](C)C3)nc2s1 [Example 485, (R)-2′-chloro-5′-methoxy-6-methyl-N-(6-(3-methylpiperidin-1-yl)thiazolo[4,5-b]pyrazin-2-yl)-[4,4′-bipyridine]-3-carboxamide]	–	> 10 µM	0.1 to 0.25 µM
COc1cnc(Cl)cc1-c1cc(C)ncc1C(=O)Nc1nc2ncc(N3CCC(C(F)F)CC3)nc2s1 [Example 486, 2′-chloro-N-(6-(4-(difluoromethyl)piperidin-1-yl)thiazolo[4,5-b]pyrazin-2-yl)-5′-methoxy-6-methyl-[4,4′-bipyridine]-3-carboxamide]	–	> 10 µM	0.001 to 0.1 µM
COc1cnc(Cl)cc1-c1cc(C)ncc1C(=O)Nc1nc2ncc(N3CCC3)nc2s1 [Example 487, N-(6-(azetidin-1-yl)thiazolo[4,5-b]pyrazin-2-yl)-2′-chloro-5′-methoxy-6-methyl-[4,4′-bipyridine]-3-carboxamide]	–	> 10 µM	0.001 to 0.1 µM
COc1cnc(Cl)cc1-c1cc(C)ncc1C(=O)Nc1nc2ncc(N3CCO[C@H](C)C3)nc2s1 [Example 488, (R)-2′-chloro-5′-methoxy-6-methyl-N-(6-(2-methylmorpholino)thiazolo[4,5-b]pyrazin-2-yl)-[4,4′-bipyridine]-3-carboxamide]	–	> 10 µM	0.001 to 0.1 µM
COc1cnc(Cl)cc1-c1cc(C)ncc1C(=O)Nc1nc2ncc(N3CCC(OC(F)(F)F)CC3)nc2s1 [Example 489, 2′-chloro-5′-methoxy-6-methyl-N-(6-(4-(trifluoromethoxy)piperidin-1-yl)thiazolo[4,5-b]pyrazin-2-yl)-[4,4′-bipyridine]-3-carboxamide]	–	> 10 µM	0.001 to 0.1 µM
COc1cnc(Cl)cc1-c1cc(C)ncc1C(=O)Nc1nc2ncc(N3CCO[C@@H](C)C3)nc2s1 [Example 490, (S)-2′-chloro-5′-methoxy-6-methyl-N-(6-(2-methylmorpholino)thiazolo[4,5-b]pyrazin-2-yl)-[4,4′-bipyridine]-3-carboxamide]	–	> 10 µM	0.001 to 0.1 µM
COc1cnc(Cl)cc1-c1cc(C)ncc1C(=O)Nc1nc2ncc(N3CCCCC3)nc2s1 [Example 491, 2′-chloro-5′-methoxy-6-methyl-N-(6-(piperidin-1-yl)thiazolo[4,5-b]pyrazin-2-yl)-[4,4′-bipyridine]-3-carboxamide]	–	> 10 µM	0.001 to 0.1 µM
